Results taken from patent publication US7547439B1, “Tumor rejection antigens” (Ludwig Institute for Cancer Research, priority 1998, dated 2009).
Entries after “also recorded” stand apart in the source; their conditions may differ.

System: LB1751-EBV cells
Experiment: Chromium release assay: lysis by CTL 447A/5 of peptide-sensitised LB1751-EBV cells
Assay type: cell-based, human
Conditions: for Lysis by CTL 447A/5 of peptide-pulsed LB1751-EBV cells pre-treated with anti-HLA-A2 mAb MA2.1: MA2.1 (1/5 dilution of hybridoma supernatant) during 51Cr-labeling, E/T 20, 4 h; for Lysis by CTL 447A/5 of LB1751-EBV cells incubated with peptide: peptide concentration as high as 10 μM
Experimental: FIG. 4. […] (A) LB1751-EBV cells pulsed with peptides derived from MAGE-A10. Chiromium-labelled autologous EBV-transformed lymphoblastoid cells LB1751-EBV were pulsed for 30 min with peptides as indicated at various concentrations before addition of CTL 447A/5 at an E/T ratio of 20. Chromium release was measured after 4 h. (B) Enhancement by mAb MA2.1 of lysis of LB1751-EBV cells pulsed with MAGE-A10 peptides. LB1751-EBV cells were pre-treated with or without anti-HLA-A2 antibody MA2.1. The pre-treatment was performed by adding mAb MA2.1 during ^51Cr-labeling. Peptide sensitisation and chromium release assay were carried out as in (A).
FIG. 5. […] LB1751-EBVcells were pre-treated with or without anti-HLA-A2 antibody MA2. 1. Ab treatment and peptide sensitisation of the cells and chromium release assay were carried out as in FIG. 4.
In the amino acid sequence corresponding to the nucleotides 547-825 there are two nonapeptides, […] (codons 183-191 in the ORF) (SEQ. ID. NO. 46) and […] (254-262) (SEQ. ID. NO. 42), which conform to the HLA-A2.1 peptide binding motif, i.e., a nona- or decapeptide with Leu or Met at position 2 and Leu, Val or Ile at its C-terminus (Rammensee, H. G., et al., 1995, Immunogenetics, 41:178-228). These two peptides and their overlapping decapeptides were synthesised on solid phase using F-moc for transient NH2-terminal protection and characterised by mass spectrometry. The peptides were >90% pure, as indicated by analytical HPLC, and used to sensitise autologous lymphoblastoid cell line LB1751-EBV in a chromium release assay as described in (Boon, T., et al., 1980, J. Exp. Med 152:1184-1193) but modified as follows. The target cells were ^51Cr-labeled for 1 h at 37° C. and then washed extensively. 1,000 target cells were then incubated in 96-well microplates in the presence of various concentrations of peptides for 30 min at 37° C. and CTLs were added at an E/T ratio of 20. Chromium release was measured after 4 h at 37° C.
Enhancement of peptide binding to the HLA-A2 molecule was achieved by incubation of target cells during ^51Cr-labeling with a ⅕ dilution of hybridoma culture supernatant of mAb MA2.1 (McMichael, A. J., et al., 1980, Hum. Immunol. 1:121-129; and Bodmer, H., et al., 1989, Nature 342:443-446).
This peptide and its overlapping decapeptide […] (codons 232-241) (SEQ. ID. NO. 45) were synthesised by the technique described above. LB1751-EVB cells incubated with either of the peptides, at a concentration of as high as 10 μM peptide, were not lysed by CTL 447A/5. […] Enhancement of peptide binding to the HLA-A2 molecule was achieved by incubation of target cells during ^51Cr-labeling with a ⅕ dilution of hybridoma culture supernatant of mAb MA2.1 (McMichael, A. J., et al., 1980, Hum. Immunol. 1: 121-129; and Bodmer, H., et al., 1989, Nature 342.443-446).

[1] = cells pulsed 30 min with peptide at various concentrations, E/T ratio 20, chromium release after 4 h, no mAb MA2.1

| Sequence | Lysis by CTL 447A/5 of peptide-pulsed LB1751-EBV cells pre-treated with anti-HLA-A2 mAb MA2.1 | Sensitisation of LB1751-EBV cells to lysis by CTL 447A/5 [1] | Sensitisation of LB1751-EBV cells to lysis by CTL 447A/5 (peptide concentration 100 μM) | Lysis by CTL 447A/5 of LB1751-EBV cells incubated with peptide |
| --- | --- | --- | --- | --- |
| CMLLVFGIDV (listed as Homo sapiens) [decapeptide from MAGE-A10 (182-191)] | failed to confer recognition | failed to confer recognition | – | – |
| GLYDGMEHL (listed as Homo sapiens) [nonapeptide encoded by MAGE-A10 (codons 254-262), presented by HLA-A2] | significantly increased sensitivity to lysis | could sensitise LB1751-EBV cells to lysis; also recorded: recognises | – | – |
| GLYDGMEHLI (listed as Homo sapiens) [decapeptide encoded by MAGE-A10 (254-263)] | significantly increased sensitivity to lysis | less efficiently | – | – |
| GLYDGREHS (listed as Homo sapiens) [nonapeptide encoded by MAGE-A8 (codons 232-240)] | enhancement of lysis | – | did sensitise LB1751-EBV cells to lysis | not lysed |
| GLYDGREHSV (listed as Homo sapiens) [decapeptide encoded by MAGE-A8 (codons 232-241)] | not | – | – | not lysed |
| MLLVFGIDV [nonapeptide from MAGE-A10 (codons 183-191)] | failed to confer recognition | failed to confer recognition | – | – |
